Reference: patent publication US20060193844A1, “Methods for enzyme inhibition” (Proteolix, Inc., priority 2005, published 2006)

What was measured:
[1] = monkeys, cited from earlier work
[2] = female rats; daily administration of doses that result in 80% inhibition of the proteasome; cited from earlier work
HT-29 cell line = experiment: Human xenograft model, tumor volume; type: in vivo; details: dose equivalent to the MTD for this strain of mouse, clinical schedule; FIG. 4
Method: In a human xenograft model using an HT-29 cell line, proteasome inhibitors were administered using the indicated regimens.

[3] = twice weekly for two weeks (days 1, 4, 8 and 11) followed by a ten-day rest period; cited from earlier work

CC(C)C[C@H](NC(=O)[C@H](Cc1ccccc1)NC(=O)c1cnccn1)B(O)O [bortezomib]
highest daily dose without severe toxicity, fold less than the MTD on the clinical dosing schedule [1]: 20 fold | highest dose without severe toxicity ([1]; daily administered): 0.5 mg/m^2 | lethality [2]: 67% | anti-tumor response (HT-29 cell line): unable to induce an anti-tumor response | maximum tolerated dose (MTD) [3]: 1.3 mg/m^2/dose
